Assay results taken from patent US7524981B2, “Phospholipid derivatives and process for the production there” (NOF Corporation, priority 2003, dated 2009).

Test: Salt-tolerant effect: clouding point in aqueous sodium sulfate
Assay type: physicochemical
Settings: 1 mass % solution in 5 mass % aqueous solution of sodium sulfate
Method: Clouding point of a 1 mass % solution of tetradecaglycerol succinyl distearoylphosphatidylethanolamine obtained in Example 5, which was dissolved in 5 mass % aqueous solution of sodium sulfate, was measured. As a result of the measurement, clouding point could not be detected even when the temperature was raised to 80° C.
Clouding point was measured for monomethylpolyoxyethylenecarbamyl (molecular weight: 2000) distearoylphosphatidylethanolamine obtained in Comparative Synthesis Example 1 in the same manner as used in Example 9.

Substance “Monomethylpolyoxyethylenecarbamyl (Molecular Weight: 2000) Distearoylphosphatidylethanolamine” has a Clouding point of 50.0 °C.

“Tetradecaglycerol Succinyl Distearoylphosphatidylethanolamine [DSPE-PG(40)]” showed a Clouding point of over 80 °C.
